Columns and labels:
Type in all cases: in vivo
[1] = tested on: caterpillars of the army worm (Spodoptera frugiperda); assay: Spodoptera frugiperda Test, cabbage leaf dip
Description: (§1) The expected action for a given combination of two active compounds can be calculated as follows, using the formula of S. R. Colby, Weeds 15 (1967), 20-22: • If • X is the kill rate, expressed as % of the untreated control, when employing active compound A at an application rate of m g/ha or in a concentration of m ppm, • Y is the kill rate, expressed as % of the untreated control, when employing active compound B at an application rate of n g/ha or in a concentration of n ppm and • E is the kill rate, expressed as % of the untreated control, when employing active compounds A and B at application rates of m and n g/ha or in a concentration of m and n ppm, • then [formula]
(§2) If the actual insecticidal kill rate exceeds the calculated value, the action of the combination is superadditive, i.e. a synergistic effect is present. In this case, the actually observed kill rate must exceed the value calculated using the above formula for the expected kill rate (E).
Spodoptera frugiperda Test
To produce a suitable preparation of active compound, 1 part by weight of active compound is mixed with the stated amounts of solvent and emulsifier, and the concentrate is diluted with emulsifier-containing water to the desired concentration. Cabbage leaves (Brassica oleracea) are treated by being dipped into the preparation of active compound of the desired concentration and are populated with caterpillars of the army worm (Spodoptera frugiperda) while the leaves are still moist.
(§3) After the desired period of time, the kill in % is determined. 100% means that all caterpillars have been killed; 0% means that none of the caterpillars have been killed. The kill rates determined are calculated using Colby's formula.

[2] = tested on: normally sensitive caterpillars of the diamondback moth (Plutella xylostella); assay: Plutella Test (normally sensitive), cabbage leaf dip
Description: as §1, §2
Plutella Test (Normally Sensitive)
To produce a suitable preparation of active compound, 1 part by weight of active compound is mixed with the stated amounts of solvent and emulsifier, and the concentrate is diluted with emulsifier-containing water to the desired concentration. […]
After the desired period of time, the kill in % is determined. […] The kill rates determined are calculated using Colby's formula.

[3] = tested on: resistant caterpillars of the diamondback moth (Plutella xylostella); assay: Plutella Test (resistant), cabbage leaf dip
Description: as §1, §2
Plutella Test (Resistant)
To produce a suitable preparation of active compound, 1 part by weight of active compound is mixed with the stated amounts of solvent and emulsifier, and the concentrate is diluted with emulsifier-containing water to the desired concentration.
Cabbage leaves (Brassica oleracea) are treated by being dipped into the preparation of active compound of the desired concentration and are populated with resistant caterpillars of the diamondback moth (Plutella xylostella) while the leaves are still moist.
as §3

Cc1cc(C)c(C2=C(OC(=O)CC(C)(C)C)C3(CCCC3)OC2=O)c(C)c1 [Ex. I-b-1]
Kill rate in % after 7 d ([1]; 100 ppm): 0%
Kill rate in % after 3 d ([2]; 100 ppm): 40%
Kill rate in % after 7 d ([3]; 100 ppm): 35%
Kill rate in % after 7 d ([3]; 500 ppm): 40%

N#Cc1nn(-c2c(Cl)cc(C(F)(F)F)cc2Cl)c(N)c1[S+]([O-])C(F)(F)F (stereo not drawn) [Fipronil, fipronil]
Kill rate in % after 7 d ([1]; 0.8 ppm): 20%
Kill rate in % after 7 d ([3]; 0.032 ppm): 40%

COC(=O)N(C(=O)N1COC2(C(=O)OC)Cc3cc(Cl)ccc3C2=N1)c1ccc(OC(F)(F)F)cc1 (stereo not drawn) [Indoxacarb, indoxacarb]
Kill rate in % after 3 d ([2]; 0.16 ppm): 15%
Kill rate in % after 7 d ([3]; 0.16 ppm): 90%

Emamectin-benzoate
Kill rate in % after 7 d ([1]; 0.16 ppm): 55%
